# pIC50: −log10 of the molar value.
# Assay: Inhibition of SMYD2 (unknown origin) expressed in human U2OS cells assessed as reduction in cell count incubated for 24 hrs by DAPI staining based assay
row,pIC50,SMILES
1,5.30,N#Cc1cc(C(=O)NCCCN2CCCC2)cc(-c2ccccc2N2CCN(CCc3ccc(Cl)c(Cl)c3)CC2)c1
2,4.88,O=C(NCCCN1CCCC1)c1cncc(-c2ccccc2N2CCN(CCc3c[nH]c4ccccc34)CC2)c1

# — BindingDB's records for doi:10.1021/acs.jmedchem.6b01303 (Astrazeneca, 2016)
